Measurements: patent publication US7993917B2, “Method for obtaining a cellular product from a cell or a tissue using protein-free medium” (The United States of America as represented by the …, priority 1999, dated 2011)
pIC50: −log10 of the molar value. Like-named read-outs stand apart in the source and are kept apart here.

System: P. falciparum isolates
Assay: 48 hour parasite lactate dehydrogenase (48 hr pLDH) drug sensitivity assay after transport from the field on ice in BAM
Type: cell-based
Conditions: Plasmodium falciparum
Description: Malaria parasites fail to thrive after removal from the patient. They can be preserved either by cryopreservation in liquid nitrogen or storage at −70° C. These techniques used for long term storage are too labor-intensive and expensive for routine use. […] Transit time can vary between a few hours to less than a week. Because of the clinical demand for such a service, BAM was evaluated in the field as a transport medium for malaria parasites.

[1] = 24 h, isolate 1107, 1 day in transit, read-out: IC50
[2] = 24 h, isolate 1236, 1 day in transit, read-out: IC50
[3] = 24 h, isolate A116, 1 day in transit, read-out: IC50
[4] = 24 h, isolate A246, 1 day in transit, read-out: IC50
[5] = 24 h, isolate A296, 1 day in transit, read-out: IC50
[6] = 24 h, isolate B236, 1 day in transit, read-out: IC50
[7] = 24 h, isolate C67, 1 day in transit, read-out: IC50
[8] = 24 h, isolate C107, 1 day in transit, read-out: IC50
[9] = 24 h, isolate C166, 1 day in transit, read-out: IC50
[10] = 24 h, isolate D86, 1 day in transit, read-out: IC50
[11] = 24 h, isolate D107, 1 day in transit, read-out: IC50
[12] = 24 h, isolate D296, 1 day in transit, read-out: IC50
[13] = 24 h, isolate E107, 1 day in transit, read-out: IC50
[14] = 24 h, isolate F166, 1 day in transit, read-out: IC50
[15] = 24 h, isolate F296, 1 day in transit, read-out: IC50
[16] = 24 h, isolate G17, 1 day in transit, read-out: IC50
[17] = 24 h, isolate G236, 1 day in transit, read-out: IC50
[18] = 24 h, isolate H107, 1 day in transit, read-out: IC50
[19] = 24 h, isolate J107, 1 day in transit, read-out: IC50
[20] = 24 h, isolate K107, 1 day in transit, read-out: IC50
[21] = 24 h, isolate KilH, 1 day in transit, read-out: IC50
[22] = 24 h, isolate KilS, 1 day in transit, read-out: IC50
[23] = 24 h, isolate L107, 1 day in transit, read-out: IC50
[24] = 24 h, isolate L137, 1 day in transit, read-out: IC50
[25] = 48 h, isolate B116, 2 days in transit, read-out: IC50
[26] = 48 h, isolate B296, 2 days in transit, read-out: IC50
[27] = 48 h, isolate C108, 2 days in transit, read-out: IC50
[28] = 48 h, isolate G296, 2 days in transit, read-out: IC50
[29] = 48 h, isolate H236, 2 days in transit, read-out: IC50
[30] = 48 h, isolate R107, 2 days in transit, read-out: IC50

CCN(CC)Cc1cc(Nc2ccnc3cc(Cl)ccc23)ccc1O [Amodiaquine, amodiaquine]
pIC50 [1]: 8.18
pIC50 [2]: 7.57
pIC50 (24 h, isolate A67, 1 day in transit, read-out: IC50): 7.42
pIC50 (24 h, isolate A107, 1 day in transit, read-out: IC50): 7.04
pIC50 [3]: 7.15
pIC50 [4]: 7.77
pIC50 [5]: 6.82
pIC50 [6]: 7.54
pIC50 [7]: 6.93
pIC50 [8]: 6.75
pIC50 [9]: 7.17
pIC50 [10]: 7.53
pIC50 [11]: 6.75
pIC50 [12]: 6.74
pIC50 [13]: 6.82
pIC50 (24 h, isolate F107, 1 day in transit, read-out: IC50): 7.63
pIC50 [14]: 7.04
pIC50 [15]: 6.69
pIC50 [16]: 7.39
pIC50 [17]: 7.47
pIC50 [18]: 7.00
pIC50 [19]: 7.90
pIC50 [20]: 7.45
pIC50 [21]: 6.90
pIC50 [22]: 6.89
pIC50 [23]: 7.74
pIC50 [24]: 6.83
pIC50 (48 h, isolate B106, 2 days in transit, read-out: IC50): 7.00
pIC50 [25]: 6.84
pIC50 [26]: 7.27
pIC50 [27]: 7.06
pIC50 (48 h, isolate D166, 2 days in transit, read-out: IC50): 8.18
pIC50 [28]: 6.75
pIC50 [29]: 8.07
pIC50 [30]: 7.10

CCN(CC)CCCC(C)Nc1ccnc2cc(Cl)ccc12 (stereo not shown) [Chloroquine, chloroquine]
pIC50 (24 h, isolate 1107, 1 day in transit): 6.80
pIC50 (24 h, isolate 1236, 1 day in transit): 7.65
pIC50 (24 h, isolate A67, 1 day in transit): 6.72
pIC50 (24 h, isolate A107, 1 day in transit): 6.09
pIC50 (24 h, isolate A116, 1 day in transit): 7.23
pIC50 (24 h, isolate A246, 1 day in transit): 7.70
pIC50 (24 h, isolate A296, 1 day in transit): 6.94
pIC50 (24 h, isolate B236, 1 day in transit): 7.04
pIC50 (24 h, isolate C67, 1 day in transit): 6.85
pIC50 (24 h, isolate C107, 1 day in transit): 6.26
pIC50 (24 h, isolate C166, 1 day in transit): 7.51
pIC50 (24 h, isolate D86, 1 day in transit): 7.48
pIC50 (24 h, isolate D107, 1 day in transit): 6.30
pIC50 (24 h, isolate E67, 1 day in transit): 7.30
pIC50 (24 h, isolate E107, 1 day in transit): 6.26
pIC50 (24 h, isolate F107, 1 day in transit): 6.09
pIC50 (24 h, isolate F166, 1 day in transit): 7.53
pIC50 (24 h, isolate F296, 1 day in transit): 7.18
pIC50 (24 h, isolate G17, 1 day in transit): 7.28
pIC50 (24 h, isolate G236, 1 day in transit): 6.48
pIC50 (24 h, isolate H107, 1 day in transit): 6.74
pIC50 (24 h, isolate J107, 1 day in transit): 6.53
pIC50 (24 h, isolate K107, 1 day in transit): 6.52
pIC50 (24 h, isolate KilH, 1 day in transit): 6.61
pIC50 (24 h, isolate KilS, 1 day in transit): 6.91
pIC50 (24 h, isolate L107, 1 day in transit): 6.65
pIC50 (24 h, isolate L137, 1 day in transit): 6.49
pIC50 (48 h, isolate B106, 2 days in transit): 6.53
pIC50 (48 h, isolate B116, 2 days in transit): 7.45
pIC50 (48 h, isolate B296, 2 days in transit): 6.18
pIC50 (48 h, isolate C108, 2 days in transit): 6.59
pIC50 (48 h, isolate G296, 2 days in transit): 6.40
pIC50 (48 h, isolate H236, 2 days in transit): 7.04
pIC50 (48 h, isolate R107, 2 days in transit): 7.10

C=C[C@H]1C[N@@]2CC[C@H]1C[C@H]2[C@H](O)c1ccnc2ccc(OC)cc12 [Quinine, quinine]
pIC50 [1]: 7.40
pIC50 [2]: 10.40
pIC50 [3]: 6.82
pIC50 [4]: 7.79
pIC50 [5]: 6.32
pIC50 [6]: 6.74
pIC50 [7]: 6.87
pIC50 [8]: 7.02
pIC50 [9]: 6.78
pIC50 [10]: 6.76
pIC50 [11]: 6.58
pIC50 [12]: 6.00
pIC50 (24 h, isolate E67, 1 day in transit, read-out: IC50): 6.97
pIC50 [13]: 6.64
pIC50 [14]: 7.03
pIC50 [15]: 7.00
pIC50 [16]: 6.84
pIC50 [17]: 6.52
pIC50 [18]: 7.55
pIC50 [19]: 7.26
pIC50 [20]: 6.45
pIC50 [21]: 6.42
pIC50 [22]: 6.73
pIC50 [23]: 7.23
pIC50 [24]: 6.87
pIC50 [25]: 6.87
pIC50 [26]: 8.74
pIC50 [27]: 6.80
pIC50 [28]: 6.51
pIC50 [29]: 6.68
pIC50 [30]: 6.33
